Tested on: 624824-186-R-J2-PDC multicell spheroids, viability
Test: Anticancer human tumor 624824-186-R-J2-PDC patient-derived colon adenocarcinoma cell line growth inhibition [PI3K]
Settings: for IC50: curve of first compound; for viability, T/C: stronger effect = lower value; active means viability on the fitted dose curve at most 10% of control; inactive means the rest
Method in brief: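 High-throughput combination screen: PI3K inhibitors crossed with targeted small molecules on complex spheroids of tumor cells, HUVEC and MSCs at 37 degrees C, 5% CO2. Top concentration was at or near clinical Cmax (otherwise 10 microM), with half-log decrements.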

[1] = second compound 0.0316 µM, first compound 0.0316 µM
[2] = second compound 0.0316 µM, first compound 0.1 µM
[3] = second compound 0.1 µM, first compound 0.0316 µM
[4] = second compound 0.1 µM, first compound 0.1 µM
[5] = second compound 0.316 µM, first compound 0.0316 µM
[6] = second compound 0.316 µM, first compound 0.1 µM
[7] = second compound 1 µM, first compound 0.0316 µM
[8] = second compound 1 µM, first compound 0.1 µM
[9] = second compound 3.16 µM, first compound 0.0316 µM
[10] = second compound 3.16 µM, first compound 0.1 µM
[11] = second compound 10 µM, first compound 0.0316 µM
[12] = second compound 10 µM, first compound 0.1 µM
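Further: spheroids exposed to agents for 7 days before viability read.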
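Wherever viability, T/C is given: 100% = DMSO vehicle treated spheroids.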

CC(C)NCC(C(=O)N1CCN(c2ncnc3c2C(C)CC3O)CC1)c1ccc(Cl)cc1 (centres undefined) + CC(Nc1ncnc2nc[nH]c12)c1cc2cccc(Cl)c2c(=O)n1-c1ccccc1
inactive: viability, T/C [1] 86.1% | viability, T/C [2] 87.8% | viability, T/C (second compound 0.0316 µM, first compound 0.316 µM) 75.5% | viability, T/C (second compound 0.0316 µM, first compound 1 µM) 89.6% | viability, T/C (second compound 0.0316 µM, first compound 3.16 µM) 88.4% | viability, T/C (second compound 0.0316 µM, first compound 10 µM) 89.4% | viability, T/C [3] 111% | viability, T/C [4] 84.9% | viability, T/C (second compound 0.1 µM, first compound 0.316 µM) 88.4% | viability, T/C (second compound 0.1 µM, first compound 1 µM) 82.2% | viability, T/C (second compound 0.1 µM, first compound 3.16 µM) 85% | viability, T/C (second compound 0.1 µM, first compound 10 µM) 86.6% | viability, T/C [5] 112% | viability, T/C [6] 113% | viability, T/C (second compound 0.316 µM, first compound 0.316 µM) 71.3% | viability, T/C (second compound 0.316 µM, first compound 1 µM) 95.6% | viability, T/C (second compound 0.316 µM, first compound 3.16 µM) 81% | viability, T/C (second compound 0.316 µM, first compound 10 µM) 74.7% | viability, T/C [7] 106% | viability, T/C [8] 96.2% | viability, T/C (second compound 1 µM, first compound 0.316 µM) 99.4% | viability, T/C (second compound 1 µM, first compound 1 µM) 85% | viability, T/C (second compound 1 µM, first compound 3.16 µM) 90.8% | viability, T/C (second compound 1 µM, first compound 10 µM) 89.3% | viability, T/C [9] 85.6% | viability, T/C [10] 104% | viability, T/C (second compound 3.16 µM, first compound 0.316 µM) 100% | viability, T/C (second compound 3.16 µM, first compound 1 µM) 82.1% | viability, T/C (second compound 3.16 µM, first compound 3.16 µM) 88.1% | viability, T/C (second compound 3.16 µM, first compound 10 µM) 87.2% | viability, T/C [11] 98.7% | viability, T/C [12] 108% | viability, T/C (second compound 10 µM, first compound 0.316 µM) 103% | viability, T/C (second compound 10 µM, first compound 1 µM) 88.1% | viability, T/C (second compound 10 µM, first compound 3.16 µM) 75.5% | viability, T/C (second compound 10 µM, first compound 10 µM) 71.4%
> 10 µM: IC50 (second compound 0.0316 µM) | IC50 (second compound 0.1 µM) | IC50 (second compound 0.316 µM) | IC50 (second compound 1 µM) | IC50 (second compound 3.16 µM) | IC50 (second compound 10 µM)

CC(C)n1nc(-c2ccc3oc(N)nc3c2)c2c(N)ncnc21 + CC(Nc1ncnc2nc[nH]c12)c1cc2cccc(Cl)c2c(=O)n1-c1ccccc1
> 0.1 µM: IC50 (second compound 0.0316 µM) | IC50 (second compound 0.1 µM) | IC50 (second compound 0.316 µM) | IC50 (second compound 1 µM) | IC50 (second compound 3.16 µM) | IC50 (second compound 10 µM)
inactive: viability, T/C (second compound 0.0316 µM, first compound 0.000316 µM) 108% | viability, T/C (second compound 0.0316 µM, first compound 0.001 µM) 113% | viability, T/C (second compound 0.0316 µM, first compound 0.00316 µM) 83% | viability, T/C (second compound 0.0316 µM, first compound 0.01 µM) 76.7% | viability, T/C [1] 75.7% | viability, T/C [2] 77.9% | viability, T/C (second compound 0.1 µM, first compound 0.000316 µM) 94.3% | viability, T/C (second compound 0.1 µM, first compound 0.001 µM) 81.9% | viability, T/C (second compound 0.1 µM, first compound 0.00316 µM) 105% | viability, T/C (second compound 0.1 µM, first compound 0.01 µM) 85.8% | viability, T/C [3] 81.5% | viability, T/C [4] 75.2% | viability, T/C (second compound 0.316 µM, first compound 0.000316 µM) 87.5% | viability, T/C (second compound 0.316 µM, first compound 0.001 µM) 77.3% | viability, T/C (second compound 0.316 µM, first compound 0.00316 µM) 73.6% | viability, T/C (second compound 0.316 µM, first compound 0.01 µM) 83.3% | viability, T/C [5] 86.8% | viability, T/C [6] 75.8% | viability, T/C (second compound 1 µM, first compound 0.000316 µM) 93.2% | viability, T/C (second compound 1 µM, first compound 0.001 µM) 99% | viability, T/C (second compound 1 µM, first compound 0.00316 µM) 91.6% | viability, T/C (second compound 1 µM, first compound 0.01 µM) 79.2% | viability, T/C [7] 84.8% | viability, T/C [8] 90.6% | viability, T/C (second compound 3.16 µM, first compound 0.000316 µM) 101% | viability, T/C (second compound 3.16 µM, first compound 0.001 µM) 90.5% | viability, T/C (second compound 3.16 µM, first compound 0.00316 µM) 82.3% | viability, T/C (second compound 3.16 µM, first compound 0.01 µM) 90.5% | viability, T/C [9] 87.7% | viability, T/C [10] 78.2% | viability, T/C (second compound 10 µM, first compound 0.000316 µM) 109% | viability, T/C (second compound 10 µM, first compound 0.001 µM) 96.7% | viability, T/C (second compound 10 µM, first compound 0.00316 µM) 82.7% | viability, T/C (second compound 10 µM, first compound 0.01 µM) 95.5% | viability, T/C [11] 81.2% | viability, T/C [12] 78.6%

— PubChem BioAssay AID1963975 (Molecular Pharmacology Branch, DTP, NCI, 2024)
